Laboratory results published in ChEMBL document CHEMBL1201862, “PubChem BioAssay data set” (2004).
Calls of active or inactive are those of the source.

Columns and labels:
Format in all cases: functional
[1] = biological target: T1, High affinity choline transporter 1 (Homo sapiens, UniProt Q9GZV3); experiment: CHT inhibitors, dose response, cell-based, 10-point CRC, membrane potential dye (AID 588401);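 further: membrane potential dye fluorescence of choline-evoked depolarization via CHT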
T1 sequence (Q9GZV3 whole entry): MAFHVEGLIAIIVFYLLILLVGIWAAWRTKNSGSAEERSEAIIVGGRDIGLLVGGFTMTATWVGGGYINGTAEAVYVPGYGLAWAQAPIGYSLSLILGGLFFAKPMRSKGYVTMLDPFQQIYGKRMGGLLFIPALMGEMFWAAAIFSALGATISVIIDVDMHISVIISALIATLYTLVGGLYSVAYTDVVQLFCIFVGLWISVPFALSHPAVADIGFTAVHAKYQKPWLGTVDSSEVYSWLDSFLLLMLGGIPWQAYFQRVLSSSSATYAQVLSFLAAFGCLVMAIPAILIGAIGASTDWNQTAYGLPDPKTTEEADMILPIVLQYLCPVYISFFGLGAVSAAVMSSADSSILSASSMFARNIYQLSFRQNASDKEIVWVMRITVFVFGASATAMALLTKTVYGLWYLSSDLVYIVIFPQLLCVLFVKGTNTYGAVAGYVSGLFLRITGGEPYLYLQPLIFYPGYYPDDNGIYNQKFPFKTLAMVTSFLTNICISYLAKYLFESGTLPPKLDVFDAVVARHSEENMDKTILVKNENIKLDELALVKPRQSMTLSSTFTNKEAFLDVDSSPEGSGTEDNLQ

[2] = biological target: T1, High affinity choline transporter 1; experiment: CHT inhibitors, dose response, cell-based, 5-point CRC, membrane potential dye (AID 504840)
[3] = Luminescence Cell-Based Dose Confirmation HTS to Identify Inhibitors of Platelet Dense Granule Release. [Related pubchem assays: 1663 (Primary HTS), 1678 (Summary of Project)]

Nc1ncnc2c1ncn2[C@@H]1O[C@H](CO)[C@@H](O)[C@H]1O [ADENOSINE]
active: IC50 [1] 200 nM | IC50 [2] 571 nM | EC50 [3] 759 nM
